Consider 14 compounds from ChEMBL document CHEMBL3286110, “Synthesis, cytotoxicity, DNA binding and topoisomerase II inhibition of cassiarin A derivatives” (Bioorg Med Chem Lett, 2014).

The structures appear in SMILES notation. Calls of active or inactive are those of the source. The calls are words filed in the database; no cut-off is given here.

Data set [1] in a line: Cytotoxicity against human ChaGo cells after 3 days by MTT assay. The format is functional, cell-based. As to conditions: 72 h.
Data set [2] deals with Calf thymus DNA. Kind of data set: Binding affinity to calf thymus DNA assessed as melting temperature at 30 uM by thermal denaturation assay. The format is nucleic-acid assay. The conditions noted are these: Bos taurus.
The subject of data set [3] is BT-474. Kind of data set: Cytotoxicity against human BT474 cells assessed as cell viability at 100 uM after 3 days by MTT assay relative to control. In kind it is functional. As to conditions: for viability at 100 µM: BT-474, 72 h, read-out: Activity. A general note: Tetrazolium assays rely on reduction of a dye to a coloured formazan, in cell work by metabolically active cells.

Data set [4] can be described thus: Cytotoxicity against human KATO III cells after 3 days by MTT assay. In kind it is functional, cell-based, KATO III cell. The conditions noted are these: 72 h.
Data set [5] can be described thus: Cytotoxicity against human CaSki cells after 3 days by MTT assay. In kind it is functional, cell-based. As to conditions: Ca-Ski, 72 h.
For data set [6], the system named is HepG2. Kind of data set: Cytotoxicity against human HepG2 cells after 3 days by MTT assay. The format is functional, cell-based. The conditions noted are these: HepG2, 72 h.
The species entered for data set [7] is Bos taurus. Kind of data set: Displacement of ethidium bromide from calf thymus DNA by fluorescence spectroscopic analysis.
The test system of data set [8] is SW-620. Kind of data set: Cytotoxicity against human SW620 cells after 3 days by MTT assay. In kind it is functional, cell-based. The conditions noted are these: SW-620, 72 h.
Data set [9] has as its target DNA topoisomerase 2-alpha (Homo sapiens) (UniProt P11388). As to the kind of experiment: Inhibition of human DNA topoisomerase-2-mediated decatenation of kinetoplast DNA at 100 uM after 1 hr by electrophoretic analysis relative to control.
For the next data set, the system named is WI-38. Kind of data set: Cytotoxicity against human WI38 cells at 1 to 60 uM after 3 days by MTT assay. The conditions noted are these: wi-38, 72 h. In kind it is cell-based.
For data set [10], the species on record is Bos taurus. As to the kind of experiment: Displacement of ethidium bromide from calf thymus DNA by Stern-Volmer plot analysis.
The subject of data set [11] is Calf thymus DNA. As to the kind of experiment: Binding affinity to calf thymus DNA assessed as change in melting temperature at 30 uM by thermal denaturation assay. The format is nucleic-acid assay. As to conditions: Bos taurus.
A further data set concerns ChaGo. As to the kind of experiment: (§1) Cytotoxicity against human ChaGo cells assessed as cell viability at 100 uM after 3 days by MTT assay relative to control. In kind it is functional.
For data set [12], the system named is HepG2. Kind of data set: Cytotoxicity against human HepG2 cells assessed as cell viability at 100 uM after 3 days by MTT assay relative to control. The conditions noted are these: for viability at 100 µM: HepG2, 72 h, read-out: Activity. The format is functional.
Data set [13] deals with SW-620. As to the kind of experiment: Cytotoxicity against human SW620 cells assessed as cell viability at 100 uM after 3 days by MTT assay relative to control. In kind it is functional. The conditions noted are these: for viability at 100 µM: SW-620, 72 h, read-out: Activity.
Another data set has as its system KATO III cell. Kind of data set: (§2) Cytotoxicity against human KATO III cells assessed as cell viability at 100 uM after 3 days by MTT assay relative to control. In kind it is functional.
The next data set concerns Ca-Ski. As to the kind of experiment: (§3) Cytotoxicity against human CaSki cells assessed as cell viability at 100 uM after 3 days by MTT assay relative to control. In kind it is functional.
Data set [14] can be described thus: as §1. The format is functional. As to conditions: 72 h, read-out: Activity.
The nature of data set [15]: as §2. The format is functional. As to conditions: 72 h, read-out: Activity.
Data set [16] in a line: as §3. In kind it is functional. The conditions noted are these: Ca-Ski, 72 h, read-out: Activity.
The target in data set [17] is DNA topoisomerase 2-alpha (Homo sapiens) (UniProt P11388). As to the kind of experiment: Inhibition of human DNA topoisomerase-2-mediated decatenation of kinetoplast DNA at 10 uM after 1 hr by electrophoretic analysis relative to control.
Sequence of DNA topoisomerase 2-alpha (Homo sapiens) (P11388 whole entry): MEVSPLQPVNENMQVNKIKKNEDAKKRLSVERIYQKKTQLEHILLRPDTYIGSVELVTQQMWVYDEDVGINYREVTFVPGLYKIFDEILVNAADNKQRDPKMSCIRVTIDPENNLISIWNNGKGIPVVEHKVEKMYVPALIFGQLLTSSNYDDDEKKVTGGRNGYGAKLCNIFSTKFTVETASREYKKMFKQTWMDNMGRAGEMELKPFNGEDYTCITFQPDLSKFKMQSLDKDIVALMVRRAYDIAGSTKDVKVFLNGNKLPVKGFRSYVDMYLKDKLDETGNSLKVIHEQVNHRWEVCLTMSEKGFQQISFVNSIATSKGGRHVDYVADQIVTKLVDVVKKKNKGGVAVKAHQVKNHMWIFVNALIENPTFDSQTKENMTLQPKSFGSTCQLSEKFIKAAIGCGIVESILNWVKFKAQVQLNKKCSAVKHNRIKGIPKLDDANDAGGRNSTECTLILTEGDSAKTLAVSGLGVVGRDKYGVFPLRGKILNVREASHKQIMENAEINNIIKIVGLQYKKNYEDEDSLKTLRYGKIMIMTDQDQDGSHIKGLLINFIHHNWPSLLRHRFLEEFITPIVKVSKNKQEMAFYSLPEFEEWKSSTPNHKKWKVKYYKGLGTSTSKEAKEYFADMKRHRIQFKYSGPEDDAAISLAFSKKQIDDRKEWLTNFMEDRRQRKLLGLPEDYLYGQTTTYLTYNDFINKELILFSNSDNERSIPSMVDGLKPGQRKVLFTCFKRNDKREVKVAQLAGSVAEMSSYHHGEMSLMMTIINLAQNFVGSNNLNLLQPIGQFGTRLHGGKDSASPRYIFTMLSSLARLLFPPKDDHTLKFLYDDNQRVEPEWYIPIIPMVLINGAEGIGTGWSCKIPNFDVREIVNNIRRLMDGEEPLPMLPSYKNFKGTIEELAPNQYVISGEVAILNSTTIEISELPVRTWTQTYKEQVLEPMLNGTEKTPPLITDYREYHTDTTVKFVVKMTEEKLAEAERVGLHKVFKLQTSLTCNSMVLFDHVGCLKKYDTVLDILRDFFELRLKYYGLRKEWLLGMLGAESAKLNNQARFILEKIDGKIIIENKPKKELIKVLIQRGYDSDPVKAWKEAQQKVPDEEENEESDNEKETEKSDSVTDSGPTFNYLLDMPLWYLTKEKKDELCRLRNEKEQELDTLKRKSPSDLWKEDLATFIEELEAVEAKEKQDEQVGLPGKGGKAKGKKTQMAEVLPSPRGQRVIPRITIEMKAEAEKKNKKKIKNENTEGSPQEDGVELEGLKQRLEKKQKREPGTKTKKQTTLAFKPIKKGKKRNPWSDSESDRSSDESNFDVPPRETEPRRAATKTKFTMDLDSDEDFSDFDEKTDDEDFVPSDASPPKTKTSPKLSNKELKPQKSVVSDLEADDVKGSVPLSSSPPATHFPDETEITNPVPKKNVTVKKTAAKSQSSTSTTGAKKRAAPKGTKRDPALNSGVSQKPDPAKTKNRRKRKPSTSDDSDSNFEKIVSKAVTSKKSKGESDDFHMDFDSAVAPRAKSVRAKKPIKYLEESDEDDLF
For data set [18] the target is unchanged. As to the kind of experiment: Inhibition of human DNA topoisomerase-2-mediated decatenation of kinetoplast DNA at 30 uM after 1 hr by electrophoretic analysis relative to control.
Data set [19] shares this target. As to the kind of experiment: Inhibition of human DNA topoisomerase-2-mediated decatenation of kinetoplast DNA at 50 uM after 1 hr by electrophoretic analysis relative to control.
For data set [20], the system named is BT-474. Kind of data set: Cytotoxicity against human BT474 cells after 3 days by MTT assay. As to conditions: BT-474, 72 h. The format is functional, cell-based.

By IC50 is commonly meant the concentration that gives 50% inhibition. A higher IC50 goes with lower potency. For orientation: Tm means the temperature at which the thermal transition is half complete. Usually inhibition stands for how much of the control response was suppressed. What is called ΔTm is the shift of the melting midpoint relative to a reference. Regarding `CC1=Cc2nc(C)cc3cc(OCCN(C)C)cc(c23)O1`, the IC50 in data set [1] is 29.5 µM; in data set [4] it was 9.82 µM; in data set [5], 30.2 µM; with HepG2 [6], 10.1 µM; with SW-620 [8], 9.85 µM. The Tm in the data set with Calf thymus DNA [2] was over 86 °C. In the data set on BT-474 [3], the viability at 100 µM is over 20%. The same compound registered a Kapp in the data set listed under Bos taurus [7] of 2.1 ×10⁶ /M. In data set [9], this compound came in with an inhibition of 30.1%. Besides, in the data set with WI-38, the Activity result is on record as “Non-toxic”. Besides, the KSV in the data set listed under Bos taurus [10] turned out to be 2.1 ×10⁴ /M. Moreover, the ΔTm in the data set with Calf thymus DNA [11] was over 15.3 °C.

Take `CC1=Cc2nc(C)cc3cc(OC(=O)c4ccc(F)cc4)cc(c23)O1`: the result in the data set on ChaGo, in the data set on HepG2 [12], with BT-474 [3], in the data set on SW-620 [13], in the data set on KATO III cell and in the data set on Ca-Ski was inactive.

For the compound `CC1=Cc2nc(C)cc3cc(OC(=O)c4ccc(C)cc4)cc(c23)O1`, the result in the data set with ChaGo, with HepG2 [12], in the data set on BT-474 [3], with SW-620 [13], in the data set on KATO III cell and with Ca-Ski was inactive.

Turning to `CCCCC(=O)Oc1cc2c3c(nc(C)cc3c1)C=C(C)O2`, the result with ChaGo, in the data set with HepG2 [12], with BT-474 [3], with SW-620 [13], in the data set with KATO III cell and in the data set with Ca-Ski was inactive.

For the compound `CC1=Cc2nc(C)cc3cc(O)cc(c23)O1` [CASSIARIN A], the Tm in the data set on Calf thymus DNA [2] is 70.7 °C. For the same compound, the viability at 100 µM (in data set [14]; with HepG2 [12]; in the data set with BT-474 [3]; in the data set on SW-620 [13]; in [15]; in data set [16]) was over 20% throughout.

In the case of `CC1=Cc2nc(C)cc3cc(OC(=O)c4ccc([N+](=O)[O-])cc4)cc(c23)O1`, the outcome in the data set on ChaGo, with HepG2 [12], with BT-474 [3], in the data set with SW-620 [13], in the data set with KATO III cell and with Ca-Ski was inactive.

As to `CC1=Cc2nc(C)cc3cc(OCCO)cc(c23)O1`, the result in the data set on ChaGo, in the data set with HepG2 [12], with BT-474 [3], in the data set with SW-620 [13], in the data set on KATO III cell and in the data set with Ca-Ski was inactive.

Consider `CC1=Cc2nc(C)cc3cc(O[Se]c4ccccc4)cc(c23)O1`, for which the Tm in the data set on Calf thymus DNA [2] stood at 70 °C. Further, the viability at 100 µM (in data set [14]; in the data set on HepG2 [12]; in the data set on BT-474 [3]; with SW-620 [13]; in data set [15]) was over 20% each time. For the same compound, the inhibition is 31.5% in data set [17], over 95% in data set [9], 75.7% in data set [18] and 95.7% in [19]. Moreover, the IC50 in data set [5] is 29.7 µM. The Activity result in the data set on WI-38 is listed as “Non-toxic”.

For `CCC(=O)Oc1cc2c3c(nc(C)cc3c1)C=C(C)O2`, the result with ChaGo, in the data set with HepG2 [12], with BT-474 [3], with SW-620 [13], with KATO III cell and in the data set with Ca-Ski was inactive.

For `CC1=Cc2nc(C)cc3cc(OCCOCCO)cc(c23)O1`, in the data set on Calf thymus DNA [2], the Tm came to 75.7 °C. Moreover, the viability at 100 µM (in data set [14]; in the data set on BT-474 [3]; in the data set with SW-620 [13]; in [16]) was over 20% in each case. Besides, the half-maximal inhibitory concentration (IC50) is 10.1 µM in data set [4] and 29.8 µM with HepG2 [6]. Also, in [9], the inhibition entry is “inactive”. In addition, the Activity entry in the data set with WI-38 is “Non-toxic”. In addition, in the data set filed under Bos taurus [10], the KSV was found to be 4.3 ×10³ /M. In addition, the ΔTm with Calf thymus DNA [11] was 4.8 °C.

`CN(C)CCN1C(=O)c2cccc3cc(N)cc(c23)C1=O` [AMONAFIDE]: the IC50 in data set [1] was found to be 1.05 µM; in [4] it was 9.24 µM; in [5] it was 9.96 µM; in the data set on HepG2 [6], 1.71 µM; in the data set with SW-620 [8], 0.32 µM; with BT-474 [20] it was 37.8 µM. The Tm in the data set with Calf thymus DNA [2] is 78.9 °C. The inhibition in data set [9] amounted to 61.8%. Further, the Activity entry in the data set on WI-38 was “Toxic”. Moreover, the ΔTm in the data set on Calf thymus DNA [11] was 8.2 °C.

Turning to `CC1=Cc2nc(C)cc3cc(OC(=O)CCCBr)cc(c23)O1`, the outcome in the data set with ChaGo, in the data set with HepG2 [12], with BT-474 [3], with SW-620 [13], in the data set with KATO III cell and in the data set on Ca-Ski was inactive.

Take `CC1=Cc2nc(C)cc3cc(OC(=O)c4ccc(Cl)cc4)cc(c23)O1`: the outcome with ChaGo, in the data set on HepG2 [12], in the data set on BT-474 [3], with SW-620 [13], in the data set on KATO III cell and in the data set on Ca-Ski was inactive.

On to `CCCC(=O)Oc1cc2c3c(nc(C)cc3c1)C=C(C)O2`, for which the result with ChaGo, with HepG2 [12], in the data set with BT-474 [3], in the data set with SW-620 [13], in the data set with KATO III cell and in the data set on Ca-Ski was inactive.
